Measurements as given in article PMC12325182, “Discovery of novel and potent celastrol derivatives as PRDX1 inhibitors for cancer therapy through structure-based virtual screening” (Frontiers in Pharmacology, 2025).

Tests used:
AXL = biological target: T1, AXL (Homo sapiens, UniProt P30530); assay: Kinase selectivity assay; format: biochemical; conditions: target AXL; read-out: CP1 IC50
T1 construct: ICE Biosciences (Beijing, China), ran the assays
Protocol: (§1) The selectivity of CP1 for PRDX1 was evaluated through kinase selectivity assays against other PRDX family members and a panel of kinases. The experiments were conducted by ICE Biosciences (Beijing, China).

ZAP70 = biological target: T2, ZAP70 (Homo sapiens, UniProt P43403); assay: Kinase selectivity assay; format: biochemical; conditions: target ZAP70; read-out: CP1 IC50
T2 construct: ICE Biosciences (Beijing, China), a contract laboratory that ran the assay
Protocol: as §1

DDR1 = biological target: T3, DDR1 (Homo sapiens, UniProt Q08345); assay: Kinase selectivity assay; format: biochemical; conditions: target DDR1; read-out: CP1 IC50
T3 construct: ICE Biosciences (Beijing, China), ran the assays
Protocol: as §1

BTK = biological target: T4, BTK (Homo sapiens, UniProt Q06187); assay: Kinase selectivity assay; format: biochemical; conditions: target BTK; read-out: CP1 IC50
T4 construct: ICE Biosciences (Beijing, China), ran the assays
Protocol: as §1

MET = MET (Homo sapiens, UniProt P08581); assay: Kinase selectivity assay; format: biochemical; conditions: target MET; read-out: CP1 IC50
Protocol: as §1

DDR2 = biological target: T5, DDR2 (Homo sapiens, UniProt Q16832); assay: Kinase selectivity assay; format: biochemical
T5 construct: ICE Biosciences (Beijing, China), ran the assays
Protocol: as §1

FLT4 = biological target: T6, FLT4 (Homo sapiens, UniProt P35916); assay: Kinase selectivity assay; format: biochemical; conditions: target FLT4; read-out: CP1 IC50
T6 construct: assay run by ICE Biosciences (Beijing, China)
Protocol: as §1

LTK = LTK (Homo sapiens, UniProt P29376); assay: Kinase selectivity assay; format: biochemical; conditions: target LTK; read-out: CP1 IC50
Protocol: as §1

INSR = INSR (Homo sapiens, UniProt P06213); assay: Kinase selectivity assay; format: biochemical; conditions: target INSR; read-out: CP1 IC50
Protocol: as §1

PRDX1 [1] = biological target: T7, PRDX1 (Homo sapiens, UniProt Q06830); assay: PRDX1 inhibition assay; format: biochemical; conditions: mean ± SD, n = 3; read-out: PRDX1 (IC50)
T7 sequence (Q06830 1-199): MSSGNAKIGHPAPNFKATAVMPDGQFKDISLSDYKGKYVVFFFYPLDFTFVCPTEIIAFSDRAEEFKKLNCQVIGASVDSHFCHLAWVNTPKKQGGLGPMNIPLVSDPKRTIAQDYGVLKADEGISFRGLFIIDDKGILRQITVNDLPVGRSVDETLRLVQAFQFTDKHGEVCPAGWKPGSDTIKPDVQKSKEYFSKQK
Protocol: The cells were purchased from the American Type Culture Collection (ATCC) (Manassas, VA, United States). Cells were cultured in RPMI-1640 medium supplemented with 10% FBS, 50 units/mL penicillin, and 50 μg/mL streptomycin, and maintained at 37°C in a 5% CO2 humidified culture environment. CPs 1-5 were purchased from WuXi AppTec. Human PRDX1 proteins were purchased from Abcam (Cambridge, MA, United States).
First, […] buffer (20 mM HEPES, 5 mM EDTA, 5 μM cofactor A, 2 μM cofactor B, and 300 μM NADPH) was added to a 96-well plate. The test compounds at the designated concentration (0.02–2 nM, with 1.5-fold dilution) were incubated with PRDX1 at 37°C for 25 min, and then the co-incubated mixture was added to each well to a final concentration of 200 nM PRDX1. Finally, 200 μM H2O2 was added to each well to initiate the enzyme reaction cycle. The oxidation of NADPH was determined by the absorption value at 340 nm. Read plate values for 90 s for one cycle and repeat for 20 cycles. The positive control (celastrol, concentrations 0.06–64 μM) was tested in parallel under identical experimental conditions. Three independent replicate experiments were performed.

PRDX1 [2] = biological target: T7, PRDX1; assay: Kinetics studies of PRDX1 inhibition; format: biochemical; conditions: mean ± SD, n = 3
Protocol: The PRDX1 protein (0.5 nM) was incubated with varying concentrations of the CP1 (0, 0.6, 1.5, and 3.8 nM) at room temperature for 1 h. Subsequently, the Trx/TrxR/NADPH mixture was added and the enzymatic reaction was initiated by the addition of different concentrations of H2O2 (5–1,000 μM). The absorbance changes at 340 nm were monitored in real-time using a microplate reader. Kinetic parameters, including the Michaelis constant (Km), maximum reaction rate (Vmax), and α value, were determined by fitting the data to the Michaelis-Menten equation.

A549 lung cancer cells = assay: MTT assay; format: cell-based
Protocol: (§2) Cells were seeded in 96-well plates at 5 ×10^4 cells/well and cultured overnight at 37°C under 5% CO2. After medium removal, cells were treated with serially diluted compounds (0.04–163.84 μM) or vehicle control (0.1% DMSO) and incubated for 72 h. Subsequently, 20 μL of MTT solution (5 mg/mL) was added to each well, and incubation was continued for 4 h. Add 150 μL of DMSO and shake for 10 min to fully dissolve the crystal. Finally, the absorbance was measured at 570 nm using a microplate reader. Cell viability was calculated as (ODcompound - ODblank)/(ODvehicle - ODblank) × 100%. The half inhibitory concentration (IC50) was calculated from the dose-response curve using Prism 8.0 software. Three independent replicate experiments were performed.

[3] = system: HepG2 (hepatocellular carcinoma cells); assay: MTT assay; format: cell-based; conditions: Homo sapiens, HepG2; MTT, 72 h; mean ± SD, n = 3; read-out: IC50 (μM) HepG2
Protocol: as §2

[4] = system: HaCaT (immortalised keratinocytes); assay: MTT assay; format: cell-based; conditions: Homo sapiens, 72 h, normal cells, mean ± SD, n = 3
Protocol: as §2

[5] = system: HEK293 (embryonic kidney cells); assay: MTT assay; format: cell-based; conditions: Homo sapiens, HEK293; MTT, 72 h; normal cells; mean ± SD, n = 3; read-out: IC50 (μM) HEK293
Protocol: as §2

[6] = system: BEAS-2B normal lung cells; assay: MTT assay; format: cell-based; conditions: Homo sapiens, MTT, 72 h, normal lung cells, mean ± SD, n = 3, read-out: IC50 (μM) BEAS-2B
Protocol: as §2

[7] = system: MCF-7 (breast adenocarcinoma cells); assay: MTT assay; format: cell-based; conditions: Homo sapiens, MCF7; MTT, 72 h; mean ± SD, n = 3; read-out: IC50 (μM) MCF-7
Protocol: as §2

T1 sequence (P30530 26-894): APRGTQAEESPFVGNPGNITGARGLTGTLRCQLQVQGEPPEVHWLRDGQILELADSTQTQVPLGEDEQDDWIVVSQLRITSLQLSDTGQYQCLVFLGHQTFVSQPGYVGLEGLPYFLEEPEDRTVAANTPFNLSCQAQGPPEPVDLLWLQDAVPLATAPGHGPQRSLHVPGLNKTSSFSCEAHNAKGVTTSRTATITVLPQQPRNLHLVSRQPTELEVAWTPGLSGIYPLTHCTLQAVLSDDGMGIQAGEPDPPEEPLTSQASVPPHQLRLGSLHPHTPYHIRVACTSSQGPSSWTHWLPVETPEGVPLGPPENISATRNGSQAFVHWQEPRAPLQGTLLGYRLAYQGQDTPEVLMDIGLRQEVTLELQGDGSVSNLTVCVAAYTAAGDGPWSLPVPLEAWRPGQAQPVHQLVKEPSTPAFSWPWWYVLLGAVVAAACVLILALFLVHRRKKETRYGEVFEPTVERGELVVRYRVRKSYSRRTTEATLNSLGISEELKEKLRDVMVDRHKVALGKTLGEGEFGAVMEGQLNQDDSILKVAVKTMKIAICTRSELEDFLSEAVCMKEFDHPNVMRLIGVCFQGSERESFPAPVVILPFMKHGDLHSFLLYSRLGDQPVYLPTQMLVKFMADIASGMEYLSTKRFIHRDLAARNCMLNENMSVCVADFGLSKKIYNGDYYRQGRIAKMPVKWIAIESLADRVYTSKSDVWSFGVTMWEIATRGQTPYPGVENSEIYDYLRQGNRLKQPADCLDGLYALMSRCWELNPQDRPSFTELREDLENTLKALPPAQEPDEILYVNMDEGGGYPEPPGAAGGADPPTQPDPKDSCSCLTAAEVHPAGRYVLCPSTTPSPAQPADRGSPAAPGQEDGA
MET, sequence (P08581 25-1390): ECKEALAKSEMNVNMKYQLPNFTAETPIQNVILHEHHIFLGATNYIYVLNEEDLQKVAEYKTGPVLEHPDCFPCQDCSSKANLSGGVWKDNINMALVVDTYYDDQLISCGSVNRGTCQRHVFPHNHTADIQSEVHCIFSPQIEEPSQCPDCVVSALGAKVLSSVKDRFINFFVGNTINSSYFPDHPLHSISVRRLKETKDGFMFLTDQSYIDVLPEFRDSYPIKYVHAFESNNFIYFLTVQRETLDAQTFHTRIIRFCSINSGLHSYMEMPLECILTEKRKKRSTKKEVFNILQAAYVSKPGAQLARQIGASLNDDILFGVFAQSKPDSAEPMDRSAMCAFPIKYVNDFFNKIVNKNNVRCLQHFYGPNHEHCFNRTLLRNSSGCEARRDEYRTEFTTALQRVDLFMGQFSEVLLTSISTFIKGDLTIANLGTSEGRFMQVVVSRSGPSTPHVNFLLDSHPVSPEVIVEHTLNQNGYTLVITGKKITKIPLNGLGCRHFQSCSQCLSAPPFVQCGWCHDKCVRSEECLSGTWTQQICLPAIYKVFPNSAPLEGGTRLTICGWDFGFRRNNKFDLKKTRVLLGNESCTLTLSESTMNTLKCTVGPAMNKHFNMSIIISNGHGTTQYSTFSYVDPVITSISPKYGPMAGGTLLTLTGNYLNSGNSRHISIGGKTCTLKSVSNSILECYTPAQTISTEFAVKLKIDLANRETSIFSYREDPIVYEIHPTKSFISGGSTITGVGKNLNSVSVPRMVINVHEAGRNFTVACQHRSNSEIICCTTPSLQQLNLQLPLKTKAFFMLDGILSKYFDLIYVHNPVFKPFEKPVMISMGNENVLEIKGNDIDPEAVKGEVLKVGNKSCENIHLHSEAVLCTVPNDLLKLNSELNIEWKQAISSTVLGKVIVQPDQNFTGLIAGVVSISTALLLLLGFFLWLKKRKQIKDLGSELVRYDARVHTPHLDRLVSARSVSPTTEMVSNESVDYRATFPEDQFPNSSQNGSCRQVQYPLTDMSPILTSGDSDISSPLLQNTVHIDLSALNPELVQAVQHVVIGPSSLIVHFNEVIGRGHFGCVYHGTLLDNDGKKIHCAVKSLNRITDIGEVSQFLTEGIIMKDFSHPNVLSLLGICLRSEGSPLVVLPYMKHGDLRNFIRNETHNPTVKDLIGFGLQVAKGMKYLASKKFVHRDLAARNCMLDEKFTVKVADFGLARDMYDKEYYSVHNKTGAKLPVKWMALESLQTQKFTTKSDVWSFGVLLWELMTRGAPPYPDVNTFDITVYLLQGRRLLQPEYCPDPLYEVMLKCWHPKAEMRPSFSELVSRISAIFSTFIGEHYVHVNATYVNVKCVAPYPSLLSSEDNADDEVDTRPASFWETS
T4 sequence (Q06187 whole entry): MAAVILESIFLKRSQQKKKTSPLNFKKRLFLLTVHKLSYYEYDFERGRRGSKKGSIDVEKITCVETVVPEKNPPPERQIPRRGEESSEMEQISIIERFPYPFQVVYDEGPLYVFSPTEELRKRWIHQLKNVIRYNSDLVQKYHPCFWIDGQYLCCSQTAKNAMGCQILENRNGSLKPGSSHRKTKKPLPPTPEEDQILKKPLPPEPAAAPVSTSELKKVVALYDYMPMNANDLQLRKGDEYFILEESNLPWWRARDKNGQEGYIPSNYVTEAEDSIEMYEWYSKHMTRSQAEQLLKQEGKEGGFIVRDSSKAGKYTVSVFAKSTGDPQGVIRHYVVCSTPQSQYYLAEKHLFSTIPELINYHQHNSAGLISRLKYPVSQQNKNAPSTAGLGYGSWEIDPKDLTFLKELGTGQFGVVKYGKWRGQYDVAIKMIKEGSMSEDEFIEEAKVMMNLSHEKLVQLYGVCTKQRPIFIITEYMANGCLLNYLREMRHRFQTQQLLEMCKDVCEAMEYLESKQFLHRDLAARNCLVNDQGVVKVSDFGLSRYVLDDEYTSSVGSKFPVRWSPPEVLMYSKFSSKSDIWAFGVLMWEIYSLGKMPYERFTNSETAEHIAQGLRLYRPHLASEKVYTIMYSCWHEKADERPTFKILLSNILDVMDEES
INSR, sequence (P06213 28-1382): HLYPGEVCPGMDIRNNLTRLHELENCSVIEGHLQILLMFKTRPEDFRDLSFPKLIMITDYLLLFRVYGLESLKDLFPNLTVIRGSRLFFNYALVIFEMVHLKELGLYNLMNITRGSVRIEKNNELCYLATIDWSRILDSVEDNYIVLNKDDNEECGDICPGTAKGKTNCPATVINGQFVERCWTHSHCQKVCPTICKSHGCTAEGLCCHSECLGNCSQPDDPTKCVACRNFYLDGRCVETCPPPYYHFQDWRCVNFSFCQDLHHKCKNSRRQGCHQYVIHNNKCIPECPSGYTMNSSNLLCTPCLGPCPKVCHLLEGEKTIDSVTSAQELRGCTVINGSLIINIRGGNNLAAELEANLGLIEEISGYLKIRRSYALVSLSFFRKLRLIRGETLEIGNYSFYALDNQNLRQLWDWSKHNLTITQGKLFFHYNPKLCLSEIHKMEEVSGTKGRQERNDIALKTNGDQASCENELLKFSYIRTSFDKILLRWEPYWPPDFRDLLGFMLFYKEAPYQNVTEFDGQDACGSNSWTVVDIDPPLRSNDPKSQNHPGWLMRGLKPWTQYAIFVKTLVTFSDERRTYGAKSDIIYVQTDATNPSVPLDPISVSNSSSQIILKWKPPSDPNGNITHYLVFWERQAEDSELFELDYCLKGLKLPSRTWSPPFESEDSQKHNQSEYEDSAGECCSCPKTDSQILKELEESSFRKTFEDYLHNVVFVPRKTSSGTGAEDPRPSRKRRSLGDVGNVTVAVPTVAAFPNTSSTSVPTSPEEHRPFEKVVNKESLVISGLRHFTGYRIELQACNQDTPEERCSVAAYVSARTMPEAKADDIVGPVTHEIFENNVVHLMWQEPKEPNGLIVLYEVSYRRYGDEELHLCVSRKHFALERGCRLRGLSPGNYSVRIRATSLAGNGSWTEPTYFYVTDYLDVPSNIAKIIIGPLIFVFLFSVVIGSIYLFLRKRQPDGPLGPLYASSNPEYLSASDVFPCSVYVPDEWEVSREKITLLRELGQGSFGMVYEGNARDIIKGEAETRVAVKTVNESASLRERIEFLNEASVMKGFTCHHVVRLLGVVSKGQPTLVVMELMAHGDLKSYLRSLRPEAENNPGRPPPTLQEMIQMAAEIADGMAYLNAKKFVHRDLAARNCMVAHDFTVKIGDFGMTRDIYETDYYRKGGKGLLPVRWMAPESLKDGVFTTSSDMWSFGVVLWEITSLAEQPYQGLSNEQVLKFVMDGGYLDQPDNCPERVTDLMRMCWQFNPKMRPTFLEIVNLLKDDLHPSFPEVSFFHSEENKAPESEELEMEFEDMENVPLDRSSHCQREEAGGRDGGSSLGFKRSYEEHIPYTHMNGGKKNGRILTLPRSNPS
T5 sequence (Q16832 22-855): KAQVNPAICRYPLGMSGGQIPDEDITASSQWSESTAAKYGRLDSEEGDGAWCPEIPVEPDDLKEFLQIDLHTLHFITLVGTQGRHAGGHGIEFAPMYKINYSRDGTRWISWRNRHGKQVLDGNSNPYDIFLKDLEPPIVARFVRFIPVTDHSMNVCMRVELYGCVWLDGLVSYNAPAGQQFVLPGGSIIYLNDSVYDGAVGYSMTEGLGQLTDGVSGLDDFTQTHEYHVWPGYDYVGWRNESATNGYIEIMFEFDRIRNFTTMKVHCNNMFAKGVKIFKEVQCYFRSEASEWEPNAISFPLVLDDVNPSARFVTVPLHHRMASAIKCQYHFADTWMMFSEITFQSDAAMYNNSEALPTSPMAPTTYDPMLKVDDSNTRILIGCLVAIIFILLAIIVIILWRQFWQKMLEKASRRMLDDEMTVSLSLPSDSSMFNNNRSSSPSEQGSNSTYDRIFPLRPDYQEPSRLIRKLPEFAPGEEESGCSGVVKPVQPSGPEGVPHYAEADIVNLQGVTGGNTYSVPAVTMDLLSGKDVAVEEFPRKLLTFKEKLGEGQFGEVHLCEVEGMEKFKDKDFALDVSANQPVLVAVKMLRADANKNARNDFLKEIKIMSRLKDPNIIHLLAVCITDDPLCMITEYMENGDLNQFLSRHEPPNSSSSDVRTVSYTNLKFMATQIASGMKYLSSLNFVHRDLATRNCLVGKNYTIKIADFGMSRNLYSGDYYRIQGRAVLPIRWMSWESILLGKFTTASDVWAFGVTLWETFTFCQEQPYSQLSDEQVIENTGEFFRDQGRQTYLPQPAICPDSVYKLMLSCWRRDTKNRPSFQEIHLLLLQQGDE

`CC1=C(CC(=O)/C=C/c2cccc(CO)c2)C(=O)C=C2C1=CC=C1[C@@]2(C)CC[C@@]2(C)C3C[C@](C)(C(=O)CCc4nc(C(O)C(O)O)c(C)nc4C)CC[C@]3(C)CC[C@]12C` (some centres unmarked) [CP1] gave an IC50 (AXL) of over 30 µM, an IC50 (ZAP70) of over 30 µM and an IC50 (DDR1) of over 30 µM. The IC50 (BTK) was over 30 µM, the IC50 (MET) was over 30 µM and the IC50 (DDR2) was over 30 µM. For the same compound, the IC50 (FLT4) was over 30 µM, the IC50 (LTK) was over 30 µM and the IC50 (INSR) was over 30 µM. The IC50 (PRDX1 [1]) was 80 ± 10 pM, the “Vmax” value (PRDX1 [2]; CP1 concentration 0.6 nM) was 56.2 ± 1.94 M/s and the “Vmax” value (PRDX1 [2]; CP1 concentration 1.5 nM) was 40.7 ± 2.42 M/s. The “Vmax” value (PRDX1 [2]; CP1 concentration 3.8 nM) was 26.8 ± 1.07 M/s, the IC50 (A549 lung cancer cells; Homo sapiens, A549, MTT, 72 h, mean ± SD, n = 3, read-out: IC50 (μM) A549) was 0.22 ± 0.01 µM and the “improvement of antiproliferative activity against A549 cells compared to celastrol” value (A549 lung cancer cells; ratio of IC50 values) was “approximately 5 fold”. For the same compound, the IC50 [3] was 0.25 ± 0.02 µM, the IC50 [4] was over 100 µM and the IC50 [5] was over 100 µM. For the same compound, the IC50 [6] was over 100 µM and the IC50 [7] was 0.27 ± 0.01 µM.
